Article PMC5937082, “Prediction of Lipophilicity and Pharmacokinetics of Chloroacetamides by Chemometric Approach” (Iranian Journal of Pharmaceutical Research : IJPR, 2018)

Experiment: Lipophilicity by reversed-phase thin-layer chromatography (RPTLC, RP-18W/UV254 plates)
Assay type: physicochemical
Conditions: φ = 0.34 - 0.56 v/v, room temperature
Procedure: During chromatographic examinations commercial plates (RP-18W/UV254 Macherey-Nagel GmBH and Co., Duren, Germany) were used as the stationary phase. Mixtures of LC grade organic modifiers (J. T. Baker, Deventer, the Netherlands) and filtered bi-distilled water were used as the mobile phase.
The tested chloroacetamides were dissolved in ethanol (analytical purity) in concentration 2 mg mL^–1. About 0.2 µL of freshly prepared solution of each compound was spotted on the plates which were then developed by the ascending technique in the unsaturated chambers at room temperature with an aqueous solutions of two organic modifiers: methanol (φ = 0.34 - 0.56, v/v) and acetone (φ = 0.34 - 0.56, v/v). The visualization of the tested compounds on the dried developed plates was performed under a UV light at λ= 254 nm. In both applied modifiers for each composition three chromatograms were developed and then the average Rf values were calculated.
From the experimentally obtained Rf values, for each composition of the mobile phase, RM values were calculated according to the Equation: […]
The relationships between the retention values, RM, of the compound and the volume fraction of the organic modifier in the mobile phase, φ, were given by:
Where intercept, RM^0, represents the chromatographic retention constant, while the slope of the linear plot, m, which is the change in RM is caused by the unit of the organic modifier concentration in the mobile phase and depends on the properties of the solute. Commonly, it is related to the specific hydrophobic surface area of the compound ([39]). Chromatographic parameter m can be applied as alternative measure of lipophilicity, also ([40], [41]).Values of these parameters obtained for chloroacetamides in the used modifiers are given in Table 4.

R M ^0 (chromatographic retention constant, intercept) (acetone-water mobile phase)	m (slope of RM vs φ) (acetone-water mobile phase)	R M ^0 (chromatographic retention constant, intercept) (methanol-water mobile phase)	m (slope of RM vs φ) (methanol-water mobile phase)	Compound
0.763 (±0.030)	-1.865 (±0.068)	1.577 (±0.069)	-3.032 (±0.154)	O=C(CCl)Nc1ccc(O)cc1 [Compound 4OH]
1.370 (±0.097)	-2.583 (±0.220)	1.542 (±0.067)	-2.673 (±0.146)	Cc1ccc(NC(=O)CCl)cc1 [Compound 4CH3]
1.130 (±0.115)	-2.431 (±0.258)	1.247 (±0.122)	-2.478 (±0.265)	COc1ccc(NC(=O)CCl)cc1 [Compound 4OCH3]
1.963 (±0.143)	-3.375 (±0.323)	2.124 (±0.122)	-3.282 (±0.266)	O=C(CCl)Nc1ccc(I)cc1 [Compound 4I]
1.186 (±0.101)	-2.278 (±0.218)	1.362 (±0.082)	-2.726 (±0.182)	N#Cc1cccc(NC(=O)CCl)c1 [Compound 3CN]
1.636 (±0.139)	-2.945 (±0.313)	1.788 (±0.140)	-2.944 (±0.306)	O=C(CCl)Nc1ccc(Cl)cc1 [Compound 4Cl]
1.849 (±0.087)	-3.175 (±0.195)	1.951 (±0.100)	-3.137 (±0.218)	O=C(CCl)Nc1ccc(Br)cc1 [Compound 4Br]
1.118 (±0.077)	-2.396 (±0.173)	1.275 (±0.121)	-2.549 (±0.263)	CC(=O)c1ccc(NC(=O)CCl)cc1 [Compound 4COCH3]
1.074 (±0.117)	-2.033 (±0.263)	1.382 (±0.039)	-2.749 (±0.086)	N#Cc1ccc(NC(=O)CCl)cc1 [Compound 4CN]
1.341 (±0.042)	-2.440 (±0.095)	1.354 (±0.088)	-2.486 (±0.192)	O=C(CCl)Nc1ccc(F)cc1 [Compound 4F]
1.780 (±0.105)	-3.105 (±0.238)	1.958 (±0.115)	-3.151 (±0.251)	O=C(CCl)Nc1cccc(Br)c1 [Compound 3Br]
1.106 (±0.132)	-2.225 (±0.285)	1.171 (±0.123)	-2.309 (±0.268)	O=C(CCl)Nc1ccccc1 [H]
